{"source": "patent US20100292471A1", "about": "“PEPTIDE NUCLEIC ACID OLIGOMERS […] BASES,PREPARATION METHODS THEREOF, AND KITS, DEVICES AND METHODS FOR THE ANALYSIS, DETECTION OR MODULATION OF NUCLEIC ACIDS USING THE SAME” (PANAGENE INC., priority 2006, published 2010)", "key": {"[1]": {"tested_on": "PCR product of HBV mutant type", "experiment": "PNA microarray hybridization with biotinylated PCR product, streptavidine-Cy5 fluorescence (perfect match)", "assay_type": "binding, hepatitis B virus (HBV)", "protocol": "The purified oligomer was diluted at a concentration of […], and spotted on a slide glass functionalized with epoxy group (Panagene, Korea) in pin mode, and the slide was allowed to stand for 4 hours at room temperature while maintaining 75% humidity. Then, it was immersed into DMF, and washed by ultrasonication for 15 minutes. It was immersed into DMF containing 0.1 M succinic anhydride and reacted at 40° C. for 2 hours. And the reaction mixture was washed by ultrasonication with DMF and deionized water, sequentially, for 15 minutes per time. Then, the slide was treated with 100 mM Tris-HCl buffer containing 0.1 M ethanolamine for 2 hours to inactivate the residual epoxy groups on the surface of the slide glass. The slide glass was washed by ultrasonication with deionized water, twice for 15 minutes per time, treated with boiling water for 5 minutes, washed with deionized water for 5 minutes, and dried. Then, a PNA microarray was ready for hybridization after attaching a silicon rubber sealing mat having holes, which can contain 100 μl of hybridization solution, to the slide glass.\nTo a hybridization solution of 100 μl was added 5 μl of the PCR product of HBV mutant type having biotin attached thereto, and streptavidine-Cy5 was added thereto to cause fluorescent reaction. […] The PNA microarray was scanned by a fluorescence scanner. […]"}, "[2]": {"tested_on": "PCR product of HBV wild type", "experiment": "PNA microarray hybridization with biotinylated PCR product, streptavidine-Cy5 fluorescence (single mismatch)", "assay_type": "binding, hepatitis B virus (HBV)", "details": "hybridization at 40° C. for 2 hours, fluorescence scanner, SEQ ID Nos. 2 to 4 compared to SEQ ID No. 1"}}}
{"substance": "k(k)k-OO-GAGCCATGAGAAA (all peptide nucleic acid (PNA); N-terminal lysines and OO linker attached) [SEQ ID No. 1, PNA oligomer, 13 mer consisting of natural bases to detect mutation]", "values": [{"measurement": "perfect match signal", "setting": "[1]; PCR product of HBV mutant type, hybridization at 40° C. for 2 hours, fluorescence scanner, FIGS. 2 and 3", "value": "intensive perfect match signal"}, {"measurement": "discriminability of HBV mutant type against wild type", "setting": "[1]; perfect match signal for HBV mutant type versus single mismatch signal for HBV wild type", "value": "cannot discriminate HBV mutant type against wild type"}, {"measurement": "single mismatch signal", "setting": "[2]", "value": "intensive single mismatch signal"}]}
